From US9492464B2, “Composition for preventing or treating side effect of steroid in subject comprising acetylsalicylic acid and use thereof” (Samsung Electronics Co., Ltd., priority 2014, dated 2016)

Key:
Format in all cases: cell-based, mouse
MuRF-1 = experiment: Real time PCR of MuRF-1 mRNA in differentiated C2C12 cells; details: 400 μM Aspirin 24 hours, then 2 μM dexamethasone 24 hours, normalized to GAPDH, FIG. 3B
Procedure: (§1) As described above with reference to Example 1(2), C2C12 cells were completely differentiated into muscle cells, and 4 ml of a fresh culture medium including 400 μM of Aspirin (Sigma Aldrich) was added thereto, and then the cells were cultured for 24 hours. 2 μM of dexamethasone (Sigma Aldrich) was added to the cultured cells, and the cells were cultured for 24 hours. The culture medium was removed therefrom, and the cells were collected. A negative control group was not treated with acetylsalicylic acid and dexamethasone.
(§2) A Trizol reagent (Invitrogen) was added to the collected cells, and total RNA was separated therefrom according to manufacturer's protocols. Complementary DNA (cDNA) was synthesized from the separated total RNA by using a reverse transcriptase. Amounts of mRNA of Atrogin-1 and MuRF-1 were quantified using a real time PCR device (MyiQPCR instrument, BioRad) that is a device measuring SYBR Green. The results were normalized with respect to an amount of GAPDH mRNA. […]
(§3) Values obtained via amplification were normalized by GAPDH gene, and relative expression levels of mRNA of Atrogin-1 and MURF-1 were quantified. The quantified relative expression levels (arbitrary unit (AU)) of mRNA of Atrogin-1 and MURF-1 are illustrated in FIGS. 3A and 3B, respectively, […]

Atrogin-1 = experiment: Real time PCR of Atrogin-1 mRNA in differentiated C2C12 cells; details: 400 μM Aspirin 24 hours, then 2 μM dexamethasone 24 hours, normalized to GAPDH, FIG. 3A
Procedure: as §1, §2, §3

glucocorticoid receptor = experiment: Immunoblotting of phosphorylated glucocorticoid receptor (pGR) in differentiated C2C12 cells; details: 40, 400 or 4000 μM Aspirin pre-treatment 24 hours, then 2 μM dexamethasone 24 hours; as amount of Aspirin increases, FIG. 1
Procedure: First, C2C12 cell lines (mouse gastrocnemius muscle, ATCC® CRL-1772™) were seeded in a 60 mm dish in 10% FBS/DMEM and incubated at 37° C. in a 5% CO2 incubator. When the cells formed 70% confluent, the culture medium was replaced with 2% FBS/DMEM and the cells were cultured for 4 days to completely induce differentiation into muscle cells. C2C12 cell lines are mouse myoblast cell lines obtained by continuous culture of myoblast cells cultured from gastrocnemius muscle of C3H mice.
When C2C12 cells were completely differentiated into muscle cells, the culture medium was removed therefrom, and 4 ml of a fresh culture medium including 40 μM, 400 μM, or 4000 μM of Aspirin (Sigma Aldrich) was added thereto, and then the cells were cultured for 24 hours. 2 μM of dexamethasone (Sigma Aldrich) was added to the cultured cells and the cells were further cultured for 24 hours. A negative control group was not treated with acetylsalicylic acid and dexamethasone.
The culture medium was removed therefrom, and the cells were collected. Then, 500 μl of RIPA (20 mM Tris-HCl (pH 7.5), 150 mM NaCl, 1 mM Na2EDTA, 1 mM EGTA, 1% NP-40, 1% (w/v) sodium deoxycholate, 2.5 mM sodium pyrophosphate, 1 mM beta-glycerophosphate, 1 mM Na3VO4, and 1 μg/ml leupeptin) lysis buffer was added thereto. The cells were lysed to obtain lysates. […]

CC(=O)Oc1ccccc1C(=O)O [Aspirin, 2-(acetyloxy)benzoic acid]
expression of mRNA of MuRF1 (MuRF-1): did not increase
expression of mRNA of Atrogin-1 (Atrogin-1): did not increase
amount of glucocorticoid receptor GR phosphorylated by dexamethasone (glucocorticoid receptor): decreases
